In patent US10894817B2, “Fatty acid modified urocortin-2 analogs for the treatment of diabetes and chronic kidney disease” (priority 2016, dated 2021) one finds EC50 data, which are given here for five compounds.

Where two headings read alike, the source gives them in different places. Starred links: 1 amine or outer side, 2 acyl side, 3 side chain; linkers in the order of their positions; H or OH if unused. Residues, ends and D or L forms follow the SMILES beside them. Groups on a side chain read outwards from the residue. *: point of attachment. C18 diacid = O=C(O)CCCCCCCCCCCCCCCCC(=O)*; γGlu = O=C(O)[C@H](CCC(=O)[*:2])N[*:1]; AEEA = NCCOCCOCC(=O)O

A word on the EC50: it is the concentration that produces a half-maximal response.

The assay has as its target T1, human CRHR2b (Homo sapiens, UniProt Q13324).
T1 construct: expressed in transfected cells; host or cells: Chinese Hamster Ovary (CHO) cells, transient transfection
T1 sequence (Q13324 1-438 isoform Q13324-2): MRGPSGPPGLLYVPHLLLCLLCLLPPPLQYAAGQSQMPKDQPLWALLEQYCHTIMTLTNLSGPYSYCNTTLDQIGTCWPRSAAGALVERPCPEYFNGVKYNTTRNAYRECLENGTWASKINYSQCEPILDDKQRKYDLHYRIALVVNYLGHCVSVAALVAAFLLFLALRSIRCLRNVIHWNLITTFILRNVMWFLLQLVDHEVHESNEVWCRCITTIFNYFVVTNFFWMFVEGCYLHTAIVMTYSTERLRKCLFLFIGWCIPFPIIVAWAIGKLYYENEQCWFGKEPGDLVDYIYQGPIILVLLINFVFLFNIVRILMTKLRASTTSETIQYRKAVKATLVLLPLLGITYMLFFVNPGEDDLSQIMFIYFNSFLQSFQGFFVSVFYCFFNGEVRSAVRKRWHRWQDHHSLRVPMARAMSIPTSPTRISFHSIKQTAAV
Nature of the assay: human CRHR2b cell-based cAMP assay. In short, it runs like this: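 ED50 values are means ± SEM over several runs, curve-fitted from cAMP in pmol, calibrated against unlabeled-cAMP standards. Detection was HTRF competition, ratio 665/620 nm, after 30 min agonist exposure at 37 °C.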
A general note: Cyclic AMP is a second messenger, typically raised through Gs and lowered through Gi signalling.

[1] abbreviates: cAMP assay, Table 26, compounds of Example 9, read-out: hCRHR2b Average EC50.

Turning to `CC[C@H](C)[C@H](N)C(=O)N[C@H](C(=O)N[C@@H](CC(C)C)C(=O)N[C@@H](CO)C(=O)N[C@@H](CC(C)C)C(=O)N[C@@H](CC(=O)O)C(=O)N[C@H](C(=O)N1CCC[C@H]1C(=O)N[C@H](C(=O)NCC(=O)N[C@@H](CC(C)C)C(=O)N[C@@H](CC(C)C)C(=O)N[C@@H](CCC(N)=O)C(=O)N[C@H](C(=O)N[C@@H](CC(C)C)C(=O)N[C@@H](CCCCNC(=O)COCCOCCNC(=O)COCCOCCNC(=O)CC[C@H](NC(=O)CC[C@H](NC(=O)CCCCCCCCCCCCCCCCC(=O)O)C(=O)O)C(=O)O)C(=O)N[C@@H](CCC(=O)O)C(=O)N[C@@H](CCC(N)=O)C(=O)N[C@@H](CCC(=O)O)C(=O)N[C@@H](CCCCN)C(=O)N[C@@H](CCC(N)=O)C(=O)N[C@@H](CCC(=O)O)C(=O)N[C@@H](CCCCN)C(=O)N[C@@H](CCC(=O)O)C(=O)N[C@@H](CCCCN)C(=O)N[C@@H](CCC(N)=O)C(=O)N[C@@H](CCC(N)=O)C(=O)N[C@@H](C)C(=O)N[C@H](C(=O)N[C@H](C(=O)N[C@@H](CC(N)=O)C(=O)N[C@@H](C)C(=O)N[C@@H](CCC(N)=O)C(=O)N[C@H](C(=O)N[C@@H](CC(C)C)C(=O)N[C@@H](C)C(=O)N[C@@H](Cc1c[nH]cn1)C(=O)N[C@H](C(N)=O)C(C)C)[C@@H](C)CC)[C@@H](C)O)[C@@H](C)O)[C@@H](C)CC)[C@@H](C)CC)C(C)C)C(C)C` [Compound 42] (H-IVLSLDVPIGLLQILK([AEEA-AEEA-γGlu-γGlu-C18 diacid])EQEKQEKEKQQATTNAQILAHV-NH2), under setting [1], the EC50 was 500 nM.

In turn, `CC[C@H](C)[C@H](N)C(=O)N[C@H](C(=O)N[C@@H](CC(C)C)C(=O)N[C@@H](CO)C(=O)N[C@@H](CC(C)C)C(=O)N[C@@H](CC(=O)O)C(=O)N[C@H](C(=O)N1CCC[C@H]1C(=O)N[C@H](C(=O)NCC(=O)N[C@@H](CC(C)C)C(=O)N[C@@H](CC(C)C)C(=O)N[C@@H](CCC(N)=O)C(=O)N[C@H](C(=O)N[C@@H](CC(C)C)C(=O)N[C@@H](CC(C)C)C(=O)N[C@@H](CCCCNC(=O)COCCOCCNC(=O)COCCOCCNC(=O)CC[C@H](NC(=O)CC[C@H](NC(=O)CCCCCCCCCCCCCCCCC(=O)O)C(=O)O)C(=O)O)C(=O)N[C@@H](CCC(N)=O)C(=O)N[C@@H](CCC(=O)O)C(=O)N[C@@H](CCCCN)C(=O)N[C@@H](CCC(N)=O)C(=O)N[C@@H](CCC(=O)O)C(=O)N[C@@H](CCCCN)C(=O)N[C@@H](CCC(=O)O)C(=O)N[C@@H](CCCCN)C(=O)N[C@@H](CCC(N)=O)C(=O)N[C@@H](CCC(N)=O)C(=O)N[C@@H](C)C(=O)N[C@H](C(=O)N[C@H](C(=O)N[C@@H](CC(N)=O)C(=O)N[C@@H](C)C(=O)N[C@@H](CCC(N)=O)C(=O)N[C@H](C(=O)N[C@@H](CC(C)C)C(=O)N[C@@H](C)C(=O)N[C@@H](Cc1c[nH]cn1)C(=O)N[C@H](C(N)=O)C(C)C)[C@@H](C)CC)[C@@H](C)O)[C@@H](C)O)[C@@H](C)CC)[C@@H](C)CC)C(C)C)C(C)C` [Compound 43] (H-IVLSLDVPIGLLQILLK([AEEA-AEEA-γGlu-γGlu-C18 diacid])QEKQEKEKQQATTNAQILAHV-NH2) had an EC50 of 12.6 nM.

For the compound `CC[C@H](C)[C@H](N)C(=O)N[C@H](C(=O)N[C@@H](CC(C)C)C(=O)N[C@@H](CO)C(=O)N[C@@H](CC(C)C)C(=O)N[C@@H](CC(=O)O)C(=O)N[C@H](C(=O)N1CCC[C@H]1C(=O)N[C@H](C(=O)NCC(=O)N[C@@H](CC(C)C)C(=O)N[C@@H](CC(C)C)C(=O)N[C@@H](CCC(N)=O)C(=O)N[C@H](C(=O)N[C@@H](CC(C)C)C(=O)N[C@@H](CC(C)C)C(=O)N[C@@H](CCC(=O)O)C(=O)N[C@@H](CCCCNC(=O)COCCOCCNC(=O)COCCOCCNC(=O)CC[C@H](NC(=O)CC[C@H](NC(=O)CCCCCCCCCCCCCCCCC(=O)O)C(=O)O)C(=O)O)C(=O)N[C@@H](CCC(=O)O)C(=O)N[C@@H](CCCCN)C(=O)N[C@@H](CCC(N)=O)C(=O)N[C@@H](CCC(=O)O)C(=O)N[C@@H](CCCCN)C(=O)N[C@@H](CCC(=O)O)C(=O)N[C@@H](CCCCN)C(=O)N[C@@H](CCC(N)=O)C(=O)N[C@@H](CCC(N)=O)C(=O)N[C@@H](C)C(=O)N[C@H](C(=O)N[C@H](C(=O)N[C@@H](CC(N)=O)C(=O)N[C@@H](C)C(=O)N[C@@H](CCC(N)=O)C(=O)N[C@H](C(=O)N[C@@H](CC(C)C)C(=O)N[C@@H](C)C(=O)N[C@@H](Cc1c[nH]cn1)C(=O)N[C@H](C(N)=O)C(C)C)[C@@H](C)CC)[C@@H](C)O)[C@@H](C)O)[C@@H](C)CC)[C@@H](C)CC)C(C)C)C(C)C` [Compound 44] (H-IVLSLDVPIGLLQILLEK([AEEA-AEEA-γGlu-γGlu-C18 diacid])EKQEKEKQQATTNAQILAHV-NH2), the EC50 under setting [1] is 13.4 nM. For `CC[C@H](C)[C@H](N)C(=O)N[C@H](C(=O)N[C@@H](CC(C)C)C(=O)N[C@@H](CO)C(=O)N[C@@H](CC(C)C)C(=O)N[C@@H](CC(=O)O)C(=O)N[C@H](C(=O)N1CCC[C@H]1C(=O)N[C@H](C(=O)NCC(=O)N[C@@H](CC(C)C)C(=O)N[C@@H](CC(C)C)C(=O)N[C@@H](CCC(N)=O)C(=O)N[C@H](C(=O)N[C@@H](CC(C)C)C(=O)N[C@@H](CC(C)C)C(=O)N[C@@H](CCC(=O)O)C(=O)N[C@@H](CCC(N)=O)C(=O)N[C@@H](CCC(=O)O)C(=O)N[C@@H](CCCCN)C(=O)N[C@@H](CCCCNC(=O)COCCOCCNC(=O)COCCOCCNC(=O)CC[C@H](NC(=O)CC[C@H](NC(=O)CCCCCCCCCCCCCCCCC(=O)O)C(=O)O)C(=O)O)C(=O)N[C@@H](CCC(=O)O)C(=O)N[C@@H](CCCCN)C(=O)N[C@@H](CCC(=O)O)C(=O)N[C@@H](CCCCN)C(=O)N[C@@H](CCC(N)=O)C(=O)N[C@@H](CCC(N)=O)C(=O)N[C@@H](C)C(=O)N[C@H](C(=O)N[C@H](C(=O)N[C@@H](CC(N)=O)C(=O)N[C@@H](C)C(=O)N[C@@H](CCC(N)=O)C(=O)N[C@H](C(=O)N[C@@H](CC(C)C)C(=O)N[C@@H](C)C(=O)N[C@@H](Cc1c[nH]cn1)C(=O)N[C@H](C(N)=O)C(C)C)[C@@H](C)CC)[C@@H](C)O)[C@@H](C)O)[C@@H](C)CC)[C@@H](C)CC)C(C)C)C(C)C` [Compound 45] (H-IVLSLDVPIGLLQILLEQEKK([AEEA-AEEA-γGlu-γGlu-C18 diacid])EKEKQQATTNAQILAHV-NH2), the EC50 under setting [1] worked out at 27.7 nM.

On to `CC[C@H](C)[C@H](N)C(=O)N[C@H](C(=O)N[C@@H](CC(C)C)C(=O)N[C@@H](CO)C(=O)N[C@@H](CC(C)C)C(=O)N[C@@H](CC(=O)O)C(=O)N[C@H](C(=O)N1CCC[C@H]1C(=O)N[C@H](C(=O)NCC(=O)N[C@@H](CC(C)C)C(=O)N[C@@H](CC(C)C)C(=O)N[C@@H](CCC(N)=O)C(=O)N[C@H](C(=O)N[C@@H](CC(C)C)C(=O)N[C@@H](CC(C)C)C(=O)N[C@@H](CCC(=O)O)C(=O)N[C@@H](CCC(N)=O)C(=O)N[C@@H](CCC(=O)O)C(=O)N[C@@H](CCCCN)C(=O)N[C@@H](CCC(N)=O)C(=O)N[C@@H](CCC(=O)O)C(=O)N[C@@H](CCCCN)C(=O)N[C@@H](CCC(=O)O)C(=O)N[C@@H](CCCCNC(=O)COCCOCCNC(=O)COCCOCCNC(=O)CC[C@H](NC(=O)CC[C@H](NC(=O)CCCCCCCCCCCCCCCCC(=O)O)C(=O)O)C(=O)O)C(=O)N[C@@H](CCC(N)=O)C(=O)N[C@@H](CCC(N)=O)C(=O)N[C@@H](C)C(=O)N[C@H](C(=O)N[C@H](C(=O)N[C@@H](CC(N)=O)C(=O)N[C@@H](C)C(=O)N[C@@H](CCC(N)=O)C(=O)N[C@H](C(=O)N[C@@H](CC(C)C)C(=O)N[C@@H](C)C(=O)N[C@@H](Cc1c[nH]cn1)C(=O)N[C@H](C(N)=O)C(C)C)[C@@H](C)CC)[C@@H](C)O)[C@@H](C)O)[C@@H](C)CC)[C@@H](C)CC)C(C)C)C(C)C` [Compound 46] (H-IVLSLDVPIGLLQILLEQEKQEKEK([AEEA-AEEA-γGlu-γGlu-C18 diacid])QQATTNAQILAHV-NH2), for which the EC50 under setting [1] is 11.7 nM.
